# Patent publication US11326165B1, “Methods and compositions for modulating splicing” (SKYHAWK THERAPEUTICS, INC., priority 2017, dated 2022)
# Assays:
# A375 xenografts = A375 xenografts in nude mice, tumor growth inhibition; assay type: in vivo
# Description: (§1) Studies were performed to assess the effects of in vivo SMSM treatment on glioblastoma, breast, pancreatic, prostate, melanoma, lymphoma and Ewing sarcoma tumors. Studies were also performed to assess the effects of in vivo SMSM treatment on mRNA levels. Immunocompromised nude mice with pre-existing glioblastoma, breast, pancreatic, prostate, melanoma, lymphoma and Ewing sarcoma xenografts were treated with vehicle or SMSMs. Tumor tissues from subcutaneous xenografts were broken into a powder using a BioPulverizer (Biospec Products, Inc.). After SMSM treatment, mRNA was isolated from the xenografts and was analyzed by qRT-PCR.
# (§2) Tumor size was measured 2 times per week in two dimensions using a caliper. Studies were terminated when the tumor size in the vehicle treated group reached 2,000 mm^3. Each mouse was bled at 2 hrs after the last dose and at least 50 μl of plasma was collected from each mouse. All of the collected plasma samples and retainer dosing solutions for each dose level were used for bioanalytical measurements. All tumors were also collected and weighed. One necrosis-free tumor fragment of approximately 50 mg was taken from each tumor and flash-frozen for RNA isolation. The remaining tumor was flash frozen for PK analysis.
# (§3) The effects of in vivo SMSM treatments on pre-existing subcutaneous glioblastoma, breast, pancreatic, prostate, melanoma, lymphoma and Ewing sarcoma xenografts were assessed. For these in vivo experiments, 1×10^6Raji, A375, A673, MDA-MB-231, BxPC-3, PC-3 or U87 (cells re-suspended in 100 μl PBS were subcutaneously injected into the flanks of nude mice. When the tumor reached approximately 100 mm^3 (volume=(¾)(π)(length/2)(width/2)^2), the treatments indicated in the tables below were initiated.
# A673 cells = assay: Cell viability and proliferation, A673 cells (crystal violet); assay type: cell-based; conditions: cell proliferation IC50 in NHDF cells over A673 cells, 72 h
# Description: Small molecule splicing modulators were tested in a dose-response assay using A673 cells and NHDF cells.
# A673 cells or NHDF cells were first plated in 96-well plastic tissue culture plates (10,000 cells per well). The cells were treated with vehicle alone (DMSO), or increasing concentrations of SMSM compounds for 72 h. Following treatment, cell proliferation was determined using a crystal violet assay. The relative cell proliferation at each concentration was determined.
# A673 xenografts = A673 xenografts in nude mice, tumor growth inhibition; assay type: in vivo; conditions: A673 xenograft (FIGS. 16A-C), 1 mg/kg BID
# Description: Dose range and time course studies comparing anti-neoplastic effects of SMSM−167 and SMSM−151 against vehicle were conducted.
# Female NCrNu mice were used. Age range of enrolment was 7-10 weeks. A total of 75 animals were for the studies.
# The A673 tumor cell line was maintained in vitro as a monolayer culture. […] The cells growing in an exponential growth phase were harvested and counted for tumor inoculation.
# Each mouse were inoculated into a right flank with the single cell suspension of 95% viable tumor cells (5×10^6 cells/mouse) in serum-free RPMI 1640 Media for tumor development. Treatments were administered when mean tumor size reached approximately 75 mm^3.
# Before commencement of treatment, all animals were weighed and assigned to treatment groups using a randomization procedure. Mice were randomized into groups based upon their tumor sizes to ensure that each group had approximately the same mean tumor size and range of tumor size.
# After inoculation, the animals were checked daily for morbidity and mortality. At the time of routine monitoring, the animals were checked for any effects of tumor growth on normal behavior such as mobility, food and water consumption, body weight gain/loss, eye/hair matting and any other abnormal effects. Deaths and observed clinical signs were recorded.
# Body weight were measured prior to tumor inoculation and prior to the treatment administration and then daily. Tumor size were measured 2-3 times per week in two dimensions using a caliper, and the volume were expressed in mm^3 using the formula: V=0.5×a×b^2 where a and b are the long and short diameters of the tumor, respectively.
# as §2, with “Studies” for “Tumor size was measured 2 times per week in two dimensions using a caliper. Studies”, “plasma were” for “plasma was”
# as §1, §2
# as §3, with “initiated. […]” for “initiated.”
compound,measurement,setting,value
"CCCS(=O)(=O)Nc1ccc(F)c(C(=O)c2c[nH]c3ncc(-c4ccc(Cl)cc4)cc23)c1F [Vemurafenib, vemurafenib, reference compound]",Tumor Growth Inhibition (TGI) (%),"A375 xenografts; A375 xenograft (FIGS. 17A-B), 50 mg/kg p.o. BID, D4",9.47%
same,Tumor Growth Inhibition (TGI) (%),"A375 xenografts; A375 xenograft (FIGS. 17A-B), 50 mg/kg p.o. BID, D6",9.98%
same,Tumor Growth Inhibition (TGI) (%),"A375 xenografts; A375 xenograft (FIGS. 17A-B), 50 mg/kg p.o. BID, D10",24.32%
same,Tumor Growth Inhibition (TGI) (%),"A375 xenografts; A375 xenograft (FIGS. 17A-B), 50 mg/kg p.o. BID, D13",50.53%
same,Tumor Growth Inhibition (TGI) (%),"A375 xenografts; A375 xenograft (FIGS. 17A-B), 50 mg/kg p.o. BID, D17",69.66%
same,Tumor Growth Inhibition (TGI) (%),"A375 xenografts; A375 xenograft (FIGS. 17A-B), 50 mg/kg p.o. BID, D21",82.03%
same,Tumor Growth Inhibition (TGI) (%),"A375 xenografts; A-375 xenograft (FIGS. 21A-B), 50 mg/kg p.o. BID *21 days, D4",111.22%
same,Tumor Growth Inhibition (TGI) (%),"A375 xenografts; A-375 xenograft (FIGS. 21A-B), 50 mg/kg p.o. BID *21 days, D7",112.77%
same,Tumor Growth Inhibition (TGI) (%),"A375 xenografts; A-375 xenograft (FIGS. 21A-B), 50 mg/kg p.o. BID *21 days, D11",114.44%
same,Tumor Growth Inhibition (TGI) (%),"A375 xenografts; A-375 xenograft (FIGS. 21A-B), 50 mg/kg p.o. BID *21 days, D14",109.55%
same,Tumor Growth Inhibition (TGI) (%),"A375 xenografts; A-375 xenograft (FIGS. 21A-B), 50 mg/kg p.o. BID *21 days, D18",107.72%
same,Tumor Growth Inhibition (TGI) (%),"A375 xenografts; A-375 xenograft (FIGS. 21A-B), 50 mg/kg p.o. BID *21 days, D21",106.56%
O=C(/C=C/c1cccc(S(=O)(=O)Nc2ccccc2)c1)NO [Belinostat],Ratio NHDF/A673 IC50,A673 cells,≤10
Nc1ccccc1NC(=O)c1ccc(CNc2nccc(-c3cccnc3)n2)cc1 [Mocetinostat],Ratio NHDF/A673 IC50,A673 cells,≤10
CC(/C=C/C(=O)NO)=C\[C@@H](C)C(=O)c1ccc(N(C)C)cc1 [Trichostatin A],Ratio NHDF/A673 IC50,A673 cells,≤10
"CN(c1ccc(-c2ccc(-c3cn[nH]c3)cc2O)nn1)[C@@H]1C[C@H]2CCC[C@@H](C1)N2 [compound 160, 2-(6-(((1R,3s,5S)-9-azabicyclo[3.3.1]nonan-3-yl)(methyl)amino)pyridazin-3-yl)-5-(1H-pyrazol-4-yl)phenol]",Ratio NHDF/A673 IC50,A673 cells,>225
same,Tumor Growth Inhibition (TGI) (%),A673 xenografts; Day 3,−0.94%
same,Tumor Growth Inhibition (TGI) (%),A673 xenografts; Day 6,25.67%
same,Tumor Growth Inhibition (TGI) (%),A673 xenografts; Day 10,25.67%
same,Tumor Growth Inhibition (TGI) (%),A673 xenografts; Day 13,42.90%
same,Tumor Growth Inhibition (TGI) (%),"A375 xenografts; A375 xenograft (FIGS. 17A-B), 3 mg/kg ip. BID, D4",33.09%
same,Tumor Growth Inhibition (TGI) (%),"A375 xenografts; A375 xenograft (FIGS. 17A-B), 3 mg/kg ip. BID, D6",92.99%
same,Tumor Growth Inhibition (TGI) (%),"A375 xenografts; A375 xenograft (FIGS. 17A-B), 3 mg/kg ip. BID, D10",109.59%
same,Tumor Growth Inhibition (TGI) (%),"A375 xenografts; A375 xenograft (FIGS. 17A-B), 3 mg/kg ip. BID, D13",105.98%
same,Tumor Growth Inhibition (TGI) (%),"A375 xenografts; A375 xenograft (FIGS. 17A-B), 3 mg/kg ip. BID, D17",99.59%
same,Tumor Growth Inhibition (TGI) (%),"A375 xenografts; A375 xenograft (FIGS. 17A-B), 3 mg/kg ip. BID, D21",94.68%
same,Tumor Growth Inhibition (TGI) (%),"A375 xenografts; A375 xenograft (FIGS. 17A-B), 3 mg/kg ip. QD, D4",3.40%
same,Tumor Growth Inhibition (TGI) (%),"A375 xenografts; A375 xenograft (FIGS. 17A-B), 3 mg/kg ip. QD, D6",47.56%
same,Tumor Growth Inhibition (TGI) (%),"A375 xenografts; A375 xenograft (FIGS. 17A-B), 3 mg/kg ip. QD, D10",44.13%
same,Tumor Growth Inhibition (TGI) (%),"A375 xenografts; A375 xenograft (FIGS. 17A-B), 3 mg/kg ip. QD, D13",40.08%
same,Tumor Growth Inhibition (TGI) (%),"A375 xenografts; A375 xenograft (FIGS. 17A-B), 3 mg/kg ip. QD, D17",45.12%
same,Tumor Growth Inhibition (TGI) (%),"A375 xenografts; A375 xenograft (FIGS. 17A-B), 3 mg/kg ip. QD, D21",53.98%
same,Tumor Growth Inhibition (TGI) (%),"A375 xenografts; A375 xenograft (FIGS. 17A-B), 10 mg/kg ip. QD*5day, D4",72.84%
same,Tumor Growth Inhibition (TGI) (%),"A375 xenografts; A375 xenograft (FIGS. 17A-B), 10 mg/kg ip. QD*5day, D6",118.42%
same,Tumor Growth Inhibition (TGI) (%),"A375 xenografts; A375 xenograft (FIGS. 17A-B), 10 mg/kg ip. QD*5day, D10",112.78%
same,Tumor Growth Inhibition (TGI) (%),"A375 xenografts; A375 xenograft (FIGS. 17A-B), 10 mg/kg ip. QD*5day, D13",103.12%
same,Tumor Growth Inhibition (TGI) (%),"A375 xenografts; A375 xenograft (FIGS. 17A-B), 10 mg/kg ip. QD*5day, D17",97.84%
same,Tumor Growth Inhibition (TGI) (%),"A375 xenografts; A375 xenograft (FIGS. 17A-B), 10 mg/kg ip. QD*5day, D21",95.59%
same,Tumor Growth Inhibition (TGI) (%),"A375 xenografts; A-375 xenograft (FIGS. 21A-B), 1.5 mg/kg i.p. BID *21 days, D4",3.60%
same,Tumor Growth Inhibition (TGI) (%),"A375 xenografts; A-375 xenograft (FIGS. 21A-B), 1.5 mg/kg i.p. BID *21 days, D7",18.11%
same,Tumor Growth Inhibition (TGI) (%),"A375 xenografts; A-375 xenograft (FIGS. 21A-B), 1.5 mg/kg i.p. BID *21 days, D11",30.05%
same,Tumor Growth Inhibition (TGI) (%),"A375 xenografts; A-375 xenograft (FIGS. 21A-B), 1.5 mg/kg i.p. BID *21 days, D14",30.28%
same,Tumor Growth Inhibition (TGI) (%),"A375 xenografts; A-375 xenograft (FIGS. 21A-B), 1.5 mg/kg i.p. BID *21 days, D18",42.80%
same,Tumor Growth Inhibition (TGI) (%),"A375 xenografts; A-375 xenograft (FIGS. 21A-B), 1.5 mg/kg i.p. BID *21 days, D21",37.88%
same,Tumor Growth Inhibition (TGI) (%),"A375 xenografts; A-375 xenograft (FIGS. 21A-B), 3 mg/kg i.p. BID *21 days, D4",38.68%
same,Tumor Growth Inhibition (TGI) (%),"A375 xenografts; A-375 xenograft (FIGS. 21A-B), 3 mg/kg i.p. BID *21 days, D7",46.64%
same,Tumor Growth Inhibition (TGI) (%),"A375 xenografts; A-375 xenograft (FIGS. 21A-B), 3 mg/kg i.p. BID *21 days, D11",94.46%
same,Tumor Growth Inhibition (TGI) (%),"A375 xenografts; A-375 xenograft (FIGS. 21A-B), 3 mg/kg i.p. BID *21 days, D14",89.78%
same,Tumor Growth Inhibition (TGI) (%),"A375 xenografts; A-375 xenograft (FIGS. 21A-B), 3 mg/kg i.p. BID *21 days, D18",81.80%
same,Tumor Growth Inhibition (TGI) (%),"A375 xenografts; A-375 xenograft (FIGS. 21A-B), 3 mg/kg i.p. BID *21 days, D21",71.33%
"CN(c1ccc(-c2ccc(-c3ccn(C)c(=O)c3)cc2O)nn1)[C@H]1C[C@]2(C)CC[C@](C)(C1)N2 [compound 168, 4-(4-(6-(((1R,3s,5S)-1,5-dimethyl-8-azabicyclo[3.2.1]octan-3-yl)(methyl)amino)pyridazin-3-yl)-3-hydroxyphenyl)-1-methylpyridin-2(1H)-one]",Ratio NHDF/A673 IC50,A673 cells,>500
Cc1[nH]c2ccccc2c1CCNCc1ccc(/C=C/C(=O)NO)cc1 [Panobinostat],Ratio NHDF/A673 IC50,A673 cells,≤10
